The source of these data is article PMC8944987, “In Vivo Efficacy of SQ109 against Leishmania donovani, Trypanosoma spp. and Toxoplasma gondii and In Vitro Activity of SQ109 Metabolites” (Biomedicines, 2022).

A short description of data set [1]: Host cell toxicity in the T. cruzi amastigote assay. It counts as cell-based. The settings on record: human. On the procedure: U2OS human osteosarcoma cells were maintained in DMEM supplemented with high glucose, 10% FBS, and 1% P/S at 37 °C with 5% CO2 in air. […] Cell images were acquired by an automated image analyzer (Operetta, Perkin Elmer Technology, Waltham, MA, USA); analysis included at least 1000 cells in five fields per well. For the imaging of infected cells and parasites, Draq-5 was observed under a 20× air objective. An image analysis algorithm (Columbus, Perkin Elmer Technology) was used to detect the Draq-5 signal in the nuclei of cells and parasites as described in a previous article and shown in Supplementary Figure S1 [20]. The number of parasites was defined by the value of the number of parasites in infected cells of the acquired image.

The test system of a further data set is T. cruzi epimastigotes. Details: method as in PMID 25583723. The settings on record: cited from earlier work.
Data set [2] concerns L. donovani promastigotes. Details: method as in PMID 31897791. The settings on record: cited from earlier work.
Data set [3] has as its system T. cruzi Dm28c epimastigotes. Briefly: T. cruzi epimastigotes assay (resazurin). The class given is cell-based. Conditions: Trypanosoma cruzi. Here is the method:
The exponential growth phase of epimastigotes were treated with different concentrations of drugs or 0.1% DMSO as negative control and incubated for 3 days at 28 °C. The viability of parasites was quantified with resazurin as described in the T. brucei assay.
In general terms: The colour change of resazurin is a common sign of viable cells or microbes.

The conditions of data set [4]: in vivo, 25 mg/kg; cited from earlier work.

Each structure is given as a SMILES string. Like-named read-outs stand apart in the source and are kept apart here.

With `CC(C)=CCC/C(C)=C/CNCCNC1C2CC3CC(C2)CC1C3` (stereo not shown) [SQ109, N-adamantan-2-yl-N’-((E)-3,7-dimethyl-octa-2,6-dienyl)-ethane-1,2-diamine], the CC50 at 3 days in data set [1] (3 days of compound incubation, Figure 2D, read-out: half-maximal cytotoxic concentration (CC50) against the host U2OS) stood at 2.95 µM; in data set [1] (amastigote host cells, read-out: T. cruzi Dm28c CC50 (U2OS)), 3.6 µM. In addition, the IC50 in the data set with T. cruzi epimastigotes is 4.6 µM; in data set [2], 0.63 µM; in data set [3] (72 h, Figure 2C, read-out: IC50, T. cruzi epimastigote growth inhibition (resazurin reduction)), 12.6 µM. For the same compound, the EC50 in data set [3] (epimastigotes, read-out: T. cruzi Dm28c EC50 (EPI)) was 4.5 µM. Moreover, the “t1/2 (terminal phase)” value in data set [4] is given as 5.2 h.

Broadly, the IC50 is the concentration at which inhibition is half-maximal. As usually defined, the EC50 is the concentration giving half of the maximal effect.
